Experimental findings from PMC6123676, “Androgen receptor degradation by the proteolysis-targeting chimera ARCC-4 outperforms enzalutamide in cellular models of prostate cancer drug resistance” (Communications Biology, 2018) are described below.

Experiment [1] concerns the target T1, androgen receptor (Homo sapiens, UniProt P10275). Put plainly: competition radioligand binding with [3H]R1881 (LNCaP cell lysate). More on the design: gene AR; AR in LNCaP cell lysates.
Target sequence in this assay (P10275 whole entry): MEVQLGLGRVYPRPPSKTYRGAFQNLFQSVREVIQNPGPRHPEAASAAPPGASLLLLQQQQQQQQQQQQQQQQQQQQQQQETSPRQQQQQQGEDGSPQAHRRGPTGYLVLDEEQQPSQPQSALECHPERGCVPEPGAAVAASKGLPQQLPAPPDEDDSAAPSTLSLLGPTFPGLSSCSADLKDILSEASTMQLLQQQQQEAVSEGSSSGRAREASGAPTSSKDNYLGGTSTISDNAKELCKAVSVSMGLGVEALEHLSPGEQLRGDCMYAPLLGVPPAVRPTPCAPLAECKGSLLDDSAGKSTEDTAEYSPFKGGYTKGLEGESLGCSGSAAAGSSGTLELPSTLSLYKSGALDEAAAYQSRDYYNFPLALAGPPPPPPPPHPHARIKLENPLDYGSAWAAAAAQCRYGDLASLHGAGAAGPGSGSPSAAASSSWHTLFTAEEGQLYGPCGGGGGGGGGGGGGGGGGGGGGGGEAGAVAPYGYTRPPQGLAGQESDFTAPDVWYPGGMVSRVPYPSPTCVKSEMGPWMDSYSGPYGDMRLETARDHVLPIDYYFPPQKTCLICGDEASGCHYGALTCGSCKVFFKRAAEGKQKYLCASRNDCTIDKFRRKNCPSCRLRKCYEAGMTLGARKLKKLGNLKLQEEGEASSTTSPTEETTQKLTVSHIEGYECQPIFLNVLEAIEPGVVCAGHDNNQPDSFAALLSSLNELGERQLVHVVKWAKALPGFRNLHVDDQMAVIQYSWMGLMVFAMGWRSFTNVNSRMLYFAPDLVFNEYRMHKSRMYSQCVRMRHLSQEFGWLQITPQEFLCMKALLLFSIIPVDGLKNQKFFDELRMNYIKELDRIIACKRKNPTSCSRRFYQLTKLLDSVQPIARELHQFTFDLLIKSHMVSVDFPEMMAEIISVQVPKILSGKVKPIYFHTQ
Experiment [2] concerns the target T1, androgen receptor. Put plainly: PROTAC degradation of AR in VCaP cells, western blot (Dmax). In kind it is cell-based. Details: gene AR; endogenous AR in VCaP cells; with VHL. A general note: Immunoblotting shows a protein as a band on a membrane.
Target sequence in this assay (P40337 whole entry): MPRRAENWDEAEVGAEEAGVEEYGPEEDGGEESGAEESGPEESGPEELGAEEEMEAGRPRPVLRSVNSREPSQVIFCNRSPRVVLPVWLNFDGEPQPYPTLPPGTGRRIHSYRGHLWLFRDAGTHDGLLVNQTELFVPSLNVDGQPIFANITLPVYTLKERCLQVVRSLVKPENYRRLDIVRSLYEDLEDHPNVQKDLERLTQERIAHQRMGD
Target sequence in this assay (P10275 whole entry): as the sequence (P10275 whole entry) above
The target in a further experiment is T2, von Hippel-Lindau (VHL) (Homo sapiens, UniProt P40337).
T2 construct: endogenous VHL in VCaP cells; with androgen receptor
Put plainly: AR degradation lost on VHL knockdown and with the non-VHL-binding epimer. Format: cell-based.

Experiment [3] concerns the target T1, androgen receptor. More on the design: gene AR.
Target sequence in this assay (P10275 whole entry): as above
In experiment [4] the target is T1, androgen receptor. Put plainly: degradation of AR in VCaP cells, western blot (DC50; Dmax […]). In kind it is cell-based. More on the design: gene AR; endogenous AR in VCaP cells.
Target sequence in this assay (P10275 whole entry): as above

Where two headings read alike, the source gives them in different places.

T2 sequence (P10275 whole entry): as above
T2 sequence (P40337 whole entry): as the sequence (P40337 whole entry) above

Turning to `Cc1ncsc1-c1ccc(CNC(=O)[C@@H]2C[C@H](O)CN2C(=O)[C@@H](NC(=O)COCCCCOc2ccc(-c3ccc(N4C(=S)N(c5ccc(C#N)c(C(F)(F)F)c5)C(=O)C4(C)C)cc3)cc2)C(C)(C)C)cc1` (mixture of isomers) [compound 3, epimer], the IC50 on androgen receptor [1] came to 0.041 µM. On to `Cc1ncsc1-c1ccc(CNC(=O)[C@@H]2C[C@@H](O)CN2C(=O)[C@@H](NC(=O)COCCOCCOCCOc2ccc(N3C(=S)N(c4ccc(C#N)c(C(F)(F)F)c4)C(=O)C3(C)C)cc2)C(C)(C)C)cc1` [2a], for which the maximal degradation (Dmax) on androgen receptor [2] came to 47%. On to `Cc1ncsc1-c1ccc(CNC(=O)[C@@H]2C[C@@H](O)CN2C(=O)[C@@H](NC(=O)COCCCCOc2ccc(-c3ccc(N4C(=S)N(c5ccc(C#N)c(C(F)(F)F)c5)C(=O)C4(C)C)cc3)cc2)C(C)(C)C)cc1` [2c, ARCC-4], for which the IC50 on androgen receptor [1] (read-out: IC50) is 0.036 µM. The “AR degradation lost on VHL knockdown and with the non-VHL-binding epimer” value at von Hippel-Lindau (VHL) was “confirmed that ARCC-4-mediated AR degradation is dependent upon VHL recruitment and binding”.

Take `C[C@]1(O)CC[C@H]2[C@@H]3CCC4=CC(=O)CCC4=C3C=C[C@@]21C` [R1881]: on androgen receptor [3], the “radioligand of the AR binding assay; also out-competes ARCC-4 in VCaP cells” value is “AR radioligand binding assay to determine the IC50 values for inhibiting binding between AR and (^3H) R1881”. `CC1(C)C(=O)N(c2ccc(C#N)c(C(F)(F)F)c2)C(=S)N1CCCC(=O)NCCOCCOC(=O)CC12CC3CC(CC(C3)C1)C2` [SARD279] showed a DC50 at androgen receptor [4] of 1.1 µM.

For orientation: IC50 means the concentration that inhibits the measured activity by half. Usually Dmax stands for the greatest extent of degradation seen. High values mean a fuller loss of target, low ones a partial loss of target. What is called DC50 is the concentration giving 50% degradation.
